Laboratory results: publication doi:10.1101/2021.04.08.439011v1 (biorxiv, 2021)

What was measured:
Conditions in all cases: 1 µM; binder
AKT3 = AKT3 (Homo sapiens, UniProt Q9Y243)
BLK = BLK (Homo sapiens, UniProt P51451)
BRK = BRK (Homo sapiens, UniProt Q13882)
CDC42BPG = CDC42BPG (Homo sapiens, UniProt Q6DT37)
CDKL5 = CDKL5 (Homo sapiens, UniProt O76039)
DSTYK = DSTYK (Homo sapiens, UniProt Q6XUX3)
EPHA4 = EPHA4 (Homo sapiens, UniProt P54764)
ICK = ICK (Homo sapiens, UniProt Q9UPZ9)
IGF1R = IGF1R (Homo sapiens, UniProt P08069)
Chain of IGF1R (P08069 whole entry): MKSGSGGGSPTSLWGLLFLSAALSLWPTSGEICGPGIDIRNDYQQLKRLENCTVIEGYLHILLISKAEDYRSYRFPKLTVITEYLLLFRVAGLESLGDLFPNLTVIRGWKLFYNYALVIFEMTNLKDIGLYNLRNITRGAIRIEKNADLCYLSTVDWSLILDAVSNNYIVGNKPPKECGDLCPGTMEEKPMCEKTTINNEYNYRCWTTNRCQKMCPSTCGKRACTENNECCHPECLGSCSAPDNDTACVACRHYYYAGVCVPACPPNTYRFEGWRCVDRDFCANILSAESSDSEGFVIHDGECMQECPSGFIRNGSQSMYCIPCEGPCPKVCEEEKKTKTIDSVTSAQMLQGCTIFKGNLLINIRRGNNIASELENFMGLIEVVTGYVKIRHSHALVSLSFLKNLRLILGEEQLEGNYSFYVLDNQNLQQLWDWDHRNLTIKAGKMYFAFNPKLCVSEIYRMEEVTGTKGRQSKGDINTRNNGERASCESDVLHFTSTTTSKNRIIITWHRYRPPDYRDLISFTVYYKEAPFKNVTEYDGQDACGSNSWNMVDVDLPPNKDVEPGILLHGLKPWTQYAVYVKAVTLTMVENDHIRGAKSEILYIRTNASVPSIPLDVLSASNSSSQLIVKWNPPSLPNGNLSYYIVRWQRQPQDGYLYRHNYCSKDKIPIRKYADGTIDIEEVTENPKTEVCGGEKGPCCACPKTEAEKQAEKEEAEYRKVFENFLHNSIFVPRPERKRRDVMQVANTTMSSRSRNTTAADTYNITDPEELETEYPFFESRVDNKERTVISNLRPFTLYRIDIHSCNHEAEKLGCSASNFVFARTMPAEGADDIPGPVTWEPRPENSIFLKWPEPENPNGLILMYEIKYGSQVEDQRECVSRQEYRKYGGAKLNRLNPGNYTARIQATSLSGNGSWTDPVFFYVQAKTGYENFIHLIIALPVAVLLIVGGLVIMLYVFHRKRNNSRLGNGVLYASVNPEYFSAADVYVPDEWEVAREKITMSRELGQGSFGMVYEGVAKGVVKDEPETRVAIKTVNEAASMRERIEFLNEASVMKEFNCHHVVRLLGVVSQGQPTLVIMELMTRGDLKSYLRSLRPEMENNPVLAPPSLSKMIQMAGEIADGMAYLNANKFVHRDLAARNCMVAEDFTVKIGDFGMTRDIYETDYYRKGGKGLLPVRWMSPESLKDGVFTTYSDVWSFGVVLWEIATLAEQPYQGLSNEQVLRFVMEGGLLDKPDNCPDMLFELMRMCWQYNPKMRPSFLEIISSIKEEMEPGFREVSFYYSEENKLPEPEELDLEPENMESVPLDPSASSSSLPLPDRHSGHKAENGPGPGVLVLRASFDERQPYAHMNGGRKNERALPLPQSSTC

IRAK1 = IRAK1 (Homo sapiens, UniProt P51617)
JNK3 = JNK3 (Homo sapiens, UniProt P53779)
LOK = LOK (Homo sapiens, UniProt O94804)
MAP3K4 = MAP3K4 (Homo sapiens, UniProt Q9Y6R4)
MAPKAPK5 = MAPKAPK5 (Homo sapiens, UniProt Q8IW41)
Chain of MAPKAPK5 (Q8IW41 whole entry): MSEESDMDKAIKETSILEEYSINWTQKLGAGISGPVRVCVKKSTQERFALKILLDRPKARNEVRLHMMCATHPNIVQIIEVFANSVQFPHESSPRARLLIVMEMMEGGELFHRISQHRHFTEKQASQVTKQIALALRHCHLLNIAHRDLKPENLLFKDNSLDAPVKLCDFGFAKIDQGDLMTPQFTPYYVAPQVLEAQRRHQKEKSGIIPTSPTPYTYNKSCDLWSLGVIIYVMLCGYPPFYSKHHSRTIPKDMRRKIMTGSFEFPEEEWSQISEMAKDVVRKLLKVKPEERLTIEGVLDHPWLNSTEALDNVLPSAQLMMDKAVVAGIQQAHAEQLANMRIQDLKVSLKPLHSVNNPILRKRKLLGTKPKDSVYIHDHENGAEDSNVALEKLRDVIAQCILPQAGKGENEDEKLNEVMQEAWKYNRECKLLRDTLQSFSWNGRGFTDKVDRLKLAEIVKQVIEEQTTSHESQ

MELK = MELK (Homo sapiens, UniProt Q14680)
MERTK = MERTK (Homo sapiens, UniProt Q12866)
MKK7 = MKK7 (Homo sapiens, UniProt O14733)
MRCKA = MRCKA (Homo sapiens, UniProt Q5VT25)
MYO3A = MYO3A (Homo sapiens, UniProt Q8NEV4)
NDR1 = NDR1 (Homo sapiens, UniProt Q15208)
NDR2 = NDR2 (Homo sapiens, UniProt Q9Y2H1)
Chain of NDR2 (Q9Y2H1 whole entry): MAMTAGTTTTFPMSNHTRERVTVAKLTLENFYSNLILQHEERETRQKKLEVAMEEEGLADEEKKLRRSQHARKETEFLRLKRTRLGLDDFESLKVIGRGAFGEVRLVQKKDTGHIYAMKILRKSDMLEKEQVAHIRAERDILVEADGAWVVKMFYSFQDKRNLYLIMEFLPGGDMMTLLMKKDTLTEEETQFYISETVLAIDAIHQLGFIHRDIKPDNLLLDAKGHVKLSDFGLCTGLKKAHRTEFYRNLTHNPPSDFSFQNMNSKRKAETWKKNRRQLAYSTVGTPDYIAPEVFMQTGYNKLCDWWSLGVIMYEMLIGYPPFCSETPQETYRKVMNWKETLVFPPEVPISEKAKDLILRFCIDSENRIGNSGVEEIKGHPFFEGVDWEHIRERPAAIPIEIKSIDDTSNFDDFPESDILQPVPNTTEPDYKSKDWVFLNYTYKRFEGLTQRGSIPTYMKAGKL

PCTK1 = PCTK1 (Homo sapiens, UniProt Q00536)
PFTAIRE2 = PFTAIRE2 (Homo sapiens, UniProt Q96Q40)
Chain of PFTAIRE2 (Q96Q40 whole entry): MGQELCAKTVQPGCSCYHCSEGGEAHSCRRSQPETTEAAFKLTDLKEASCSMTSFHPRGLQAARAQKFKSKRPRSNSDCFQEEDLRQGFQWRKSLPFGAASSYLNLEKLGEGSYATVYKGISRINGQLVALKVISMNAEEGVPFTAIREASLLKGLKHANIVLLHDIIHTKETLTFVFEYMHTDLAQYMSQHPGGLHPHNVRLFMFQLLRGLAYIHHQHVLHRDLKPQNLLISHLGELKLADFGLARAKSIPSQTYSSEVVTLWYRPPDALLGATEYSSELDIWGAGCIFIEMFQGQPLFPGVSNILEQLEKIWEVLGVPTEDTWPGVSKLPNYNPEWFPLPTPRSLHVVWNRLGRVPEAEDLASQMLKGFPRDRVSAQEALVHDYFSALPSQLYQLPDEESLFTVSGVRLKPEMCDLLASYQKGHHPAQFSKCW

PRKG1 = PRKG1 (Homo sapiens, UniProt Q13976)
PRKR = PRKR (Homo sapiens, UniProt P19525)
SLK = SLK (Homo sapiens, UniProt Q9H2G2)
Chain of SLK (Q9H2G2 whole entry): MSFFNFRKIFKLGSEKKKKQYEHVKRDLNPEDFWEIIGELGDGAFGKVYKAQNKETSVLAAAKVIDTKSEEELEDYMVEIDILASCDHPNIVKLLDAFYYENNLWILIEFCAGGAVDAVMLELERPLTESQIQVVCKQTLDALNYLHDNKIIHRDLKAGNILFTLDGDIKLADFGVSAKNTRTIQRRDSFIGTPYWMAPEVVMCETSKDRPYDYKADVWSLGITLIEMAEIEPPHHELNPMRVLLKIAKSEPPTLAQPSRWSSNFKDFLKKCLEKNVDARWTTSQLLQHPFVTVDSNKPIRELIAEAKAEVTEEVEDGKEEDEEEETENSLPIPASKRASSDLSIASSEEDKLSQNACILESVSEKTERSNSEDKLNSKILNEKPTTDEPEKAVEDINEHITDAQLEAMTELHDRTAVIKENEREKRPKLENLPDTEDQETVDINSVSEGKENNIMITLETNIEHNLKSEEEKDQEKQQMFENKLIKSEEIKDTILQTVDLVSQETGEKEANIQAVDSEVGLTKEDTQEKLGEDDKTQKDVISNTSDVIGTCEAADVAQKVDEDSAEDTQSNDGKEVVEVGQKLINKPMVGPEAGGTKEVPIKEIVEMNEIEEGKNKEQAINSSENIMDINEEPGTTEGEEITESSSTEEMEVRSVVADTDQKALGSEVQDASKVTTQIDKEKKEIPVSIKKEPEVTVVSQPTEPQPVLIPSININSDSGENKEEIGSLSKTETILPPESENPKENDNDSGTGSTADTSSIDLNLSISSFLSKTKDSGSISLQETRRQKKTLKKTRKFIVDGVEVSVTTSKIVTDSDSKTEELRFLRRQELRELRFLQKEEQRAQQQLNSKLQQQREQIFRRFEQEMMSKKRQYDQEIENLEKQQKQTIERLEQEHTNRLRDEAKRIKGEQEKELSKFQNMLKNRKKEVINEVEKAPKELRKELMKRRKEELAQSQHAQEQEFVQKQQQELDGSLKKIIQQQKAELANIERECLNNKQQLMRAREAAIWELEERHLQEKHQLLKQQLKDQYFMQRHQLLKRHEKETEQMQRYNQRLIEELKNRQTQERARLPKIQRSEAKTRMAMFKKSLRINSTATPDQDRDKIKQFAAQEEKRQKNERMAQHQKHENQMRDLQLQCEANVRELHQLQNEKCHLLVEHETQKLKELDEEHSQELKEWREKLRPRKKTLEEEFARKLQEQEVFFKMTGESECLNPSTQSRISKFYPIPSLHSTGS

TAK1 = TAK1 (Homo sapiens, UniProt O43318)
Chain of TAK1 (O43318 whole entry): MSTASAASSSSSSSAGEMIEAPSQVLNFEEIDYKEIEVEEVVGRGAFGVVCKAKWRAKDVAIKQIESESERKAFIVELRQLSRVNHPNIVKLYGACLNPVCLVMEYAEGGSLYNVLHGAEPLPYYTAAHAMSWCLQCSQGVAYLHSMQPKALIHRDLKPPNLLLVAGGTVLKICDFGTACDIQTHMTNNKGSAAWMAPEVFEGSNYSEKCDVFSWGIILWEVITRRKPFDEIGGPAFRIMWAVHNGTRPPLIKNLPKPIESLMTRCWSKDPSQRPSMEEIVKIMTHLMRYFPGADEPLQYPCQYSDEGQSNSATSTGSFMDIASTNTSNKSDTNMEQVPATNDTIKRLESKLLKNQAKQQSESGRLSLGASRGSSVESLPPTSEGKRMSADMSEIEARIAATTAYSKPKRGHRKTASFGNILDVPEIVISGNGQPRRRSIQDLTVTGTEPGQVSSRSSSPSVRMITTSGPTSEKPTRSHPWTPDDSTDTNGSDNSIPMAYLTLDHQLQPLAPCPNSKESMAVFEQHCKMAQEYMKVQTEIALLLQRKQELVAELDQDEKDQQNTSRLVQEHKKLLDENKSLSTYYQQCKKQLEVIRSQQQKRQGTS

TAOK3 = TAOK3 (Homo sapiens, UniProt Q9H2K8)
TESK1 = TESK1 (Homo sapiens, UniProt Q15569)
TNK2 = TNK2 (Homo sapiens, UniProt Q07912)
ZAP70 = ZAP70 (Homo sapiens, UniProt P43403)

Chain of BRK (Q13882 whole entry): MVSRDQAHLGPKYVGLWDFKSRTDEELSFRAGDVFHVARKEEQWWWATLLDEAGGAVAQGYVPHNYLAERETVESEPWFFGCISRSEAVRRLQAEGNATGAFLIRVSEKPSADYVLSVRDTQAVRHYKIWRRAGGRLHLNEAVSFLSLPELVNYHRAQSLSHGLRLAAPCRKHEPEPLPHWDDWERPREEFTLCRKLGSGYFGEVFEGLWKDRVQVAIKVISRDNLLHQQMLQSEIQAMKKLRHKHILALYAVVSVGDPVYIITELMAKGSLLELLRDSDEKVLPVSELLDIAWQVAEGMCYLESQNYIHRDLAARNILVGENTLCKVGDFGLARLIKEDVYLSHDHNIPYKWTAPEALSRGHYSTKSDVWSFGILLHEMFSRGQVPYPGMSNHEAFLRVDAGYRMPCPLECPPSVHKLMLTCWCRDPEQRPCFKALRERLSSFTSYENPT

For CNc1ncc2cc(-c3ccc(-c4cccc(C)n4)cc3Cl)c(=O)n(C[C@H]3OC[C@H](N)CO3)c2n1 [compound 6, G-5555], the “Percent Control” value (AKT3) was 48%, the “Percent Control” value (BLK) was 99% and the “Percent Control” value (BRK) was 100%. The “Percent Control” value (CDC42BPG) was 15%, the “Percent Control” value (CDKL5) was 97% and the “Percent Control” value (DSTYK) was 91%. For the same molecule, the “Percent Control” value (EPHA4) was 100%, the “Percent Control” value (ICK) was 100% and the “Percent Control” value (IGF1R) was 100%. The “Percent Control” value (IRAK1) was 49%, the “Percent Control” value (JNK3) was 87% and the “Percent Control” value (LOK) was 2.1%. The “Percent Control” value (MAP3K4) was 52%, the “Percent Control” value (MAPKAPK5) was 100% and the “Percent Control” value (MELK) was 47%. For the same molecule, the “Percent Control” value (MERTK) was 100%, the “Percent Control” value (MKK7) was 77% and the “Percent Control” value (MRCKA) was 70%. For the same molecule, the “Percent Control” value (MYO3A) was 96%, the “Percent Control” value (NDR1) was 70% and the “Percent Control” value (NDR2) was 100%. For the same molecule, the “Percent Control” value (PCTK1) was 100%, the “Percent Control” value (PFTAIRE2) was 100% and the “Percent Control” value (PRKG1) was 100%. For the same molecule, the “Percent Control” value (PRKR) was 94%, the “Percent Control” value (SLK) was 33% and the “Percent Control” value (TAK1) was 92%. For the same molecule, the “Percent Control” value (TAOK3) was 100%, the “Percent Control” value (TESK1) was 99% and the “Percent Control” value (TNK2) was 86%. For the same molecule, the “Percent Control” value (ZAP70) was 100%.
